Six compounds from patent EP4596574A1, “GLP-1/GCG/GIP TRIPLE-RECEPTOR AGONIST AND USE THEREOF” (Sunshine Lake Pharma Co., Ltd., priority 2022, dated 2024) can be followed below.

Type in all cases: cell-based
One experiment deals with T1, GLP-1R (Homo sapiens, UniProt P43220).
T1 construct: expressed in transfected cells; host or cells: HEK293 (HEK293-GLP-1R)
Kind of experiment: In vitro cell activity, cAMP production in HEK293 cells expressing GLP-1R. The settings on record: HEK293-GLP-1R cells, cAMP; read-out: GLP-1R (EC50). Summed up:
(§1)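 Cells were plated at 4×10^5 cells/mL, and detection reagents (cAMP-d2, anti-cAMP cryptate, 1:1) were incubated 1 h at room temperature in the dark or overnight at 4 °C.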
A general note: cAMP levels reflect the balance of adenylyl cyclase and phosphodiesterase activity.

A further experiment concerns the target T2, GIPR (Homo sapiens, UniProt P48546).
T2 construct: expressed in transfected cells; host or cells: HEK293 (HEK293-GIPR)
T2 sequence (P48546 22-466): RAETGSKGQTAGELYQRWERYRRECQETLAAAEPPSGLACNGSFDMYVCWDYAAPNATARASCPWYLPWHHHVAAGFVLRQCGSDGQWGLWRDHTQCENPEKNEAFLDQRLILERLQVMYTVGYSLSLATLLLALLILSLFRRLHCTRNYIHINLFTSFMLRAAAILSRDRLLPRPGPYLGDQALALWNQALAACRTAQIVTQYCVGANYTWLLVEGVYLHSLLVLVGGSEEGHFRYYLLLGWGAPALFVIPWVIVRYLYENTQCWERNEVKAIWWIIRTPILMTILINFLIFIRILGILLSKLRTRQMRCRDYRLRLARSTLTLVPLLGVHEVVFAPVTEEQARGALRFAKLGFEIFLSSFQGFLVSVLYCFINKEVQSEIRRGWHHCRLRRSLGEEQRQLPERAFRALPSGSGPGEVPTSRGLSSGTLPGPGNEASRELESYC
Briefly: In vitro cell activity, cAMP production in HEK293 cells expressing GIPR. The following applies: HEK293-GIPR cells, cAMP; read-out: GIPR (EC50). In outline:
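cAMP accumulation is quantified by homogeneous TR-FRET (cAMP-d2 plus anti-cAMP cryptate) in GIPR-expressing HEK293 cells seeded from a 4×10^5 cells/mL suspension and treated with compound. The signal ratio is plotted against concentration and fitted to a four-parameter curve to give EC50.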

The next experiment concerns the target T3, GCGR (Homo sapiens, UniProt P47871).
T3 construct: expressed in transfected cells; host or cells: HEK293 (HEK293-GCGR)
Briefly: In vitro cell activity, cAMP production in HEK293 cells expressing GCGR. The following applies: HEK293-GCGR cells, cAMP; read-out: GCGR (EC50). In outline: as §1

Starred links: 1 amine or outer side, 2 acyl side, 3 side chain; linkers in the order of their positions; H or OH if unused. Non-standard residues stand in square brackets, D forms with d. Residues, ends and D or L forms follow the SMILES beside them. Groups on a side chain read outwards from the residue. *: point of attachment. C20 diacid = O=C(O)CCCCCCCCCCCCCCCCCCC(=O)*; C18 diacid = O=C(O)CCCCCCCCCCCCCCCCC(=O)*; αMePhe(2-F) = C[C@](N)(Cc1ccccc1F)C(=O)O; γGlu = O=C(O)[C@H](CCC(=O)[*:2])N[*:1]; AEEA = NCCOCCOCC(=O)O; Aib = CC(C)(N)C(=O)O

T3 sequence (P47871 26-477, species assumed): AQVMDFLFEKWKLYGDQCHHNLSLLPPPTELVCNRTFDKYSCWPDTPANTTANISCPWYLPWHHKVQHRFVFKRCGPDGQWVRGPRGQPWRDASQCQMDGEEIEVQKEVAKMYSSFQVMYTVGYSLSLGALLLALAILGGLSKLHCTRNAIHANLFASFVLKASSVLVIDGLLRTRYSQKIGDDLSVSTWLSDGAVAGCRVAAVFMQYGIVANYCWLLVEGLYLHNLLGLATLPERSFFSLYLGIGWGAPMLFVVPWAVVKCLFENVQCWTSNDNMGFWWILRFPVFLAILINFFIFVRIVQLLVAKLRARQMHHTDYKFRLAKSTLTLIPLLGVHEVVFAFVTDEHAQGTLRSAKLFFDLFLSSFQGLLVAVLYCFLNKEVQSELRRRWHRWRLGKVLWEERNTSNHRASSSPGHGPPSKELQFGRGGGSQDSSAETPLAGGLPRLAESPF
T1 sequence (P43220 24-463, species assumed): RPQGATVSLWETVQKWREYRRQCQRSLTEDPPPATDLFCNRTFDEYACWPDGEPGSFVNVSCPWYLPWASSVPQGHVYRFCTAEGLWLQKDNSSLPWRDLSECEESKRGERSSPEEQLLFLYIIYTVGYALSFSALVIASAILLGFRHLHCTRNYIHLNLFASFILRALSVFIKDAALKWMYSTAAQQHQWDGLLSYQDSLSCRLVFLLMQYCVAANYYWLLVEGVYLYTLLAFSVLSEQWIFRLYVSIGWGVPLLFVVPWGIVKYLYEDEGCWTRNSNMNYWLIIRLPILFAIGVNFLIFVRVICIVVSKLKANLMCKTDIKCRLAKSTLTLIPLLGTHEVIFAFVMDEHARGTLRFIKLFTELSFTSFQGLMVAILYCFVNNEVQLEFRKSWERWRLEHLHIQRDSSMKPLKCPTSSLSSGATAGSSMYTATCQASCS

In general, EC50 refers to the concentration needed to bring the measured effect to its halfway point. As to `CC[C@H](C)[C@H](NC(=O)[C@H](CCC(=O)O)NC(=O)[C@H](CC(=O)O)NC(=O)[C@H](CC(C)C)NC(=O)[C@H](CC(C)C)NC(=O)[C@@H](NC(=O)[C@H](CO)NC(=O)[C@H](Cc1ccc(O)cc1)NC(=O)[C@H](CC(=O)O)NC(=O)[C@H](CO)NC(=O)[C@@H](NC(=O)[C@](C)(Cc1ccccc1F)NC(=O)[C@@H](NC(=O)CNC(=O)[C@H](CCC(N)=O)NC(=O)C(C)(C)NC(=O)[C@@H](N)Cc1ccc(O)cc1)[C@@H](C)O)[C@@H](C)O)[C@@H](C)CC)C(=O)N[C@@H](C)C(=O)N[C@@H](CCC(N)=O)C(=O)N[C@@H](CCCCNC(=O)COCCOCCNC(=O)COCCOCCNC(=O)CC[C@H](NC(=O)CCCCCCCCCCCCCCCCCCC(=O)O)C(=O)O)C(=O)N[C@@H](C)C(=O)N[C@@H](Cc1ccccc1)C(=O)N[C@H](C(=O)N[C@@H](CCC(N)=O)C(=O)N[C@@H](Cc1c[nH]c2ccccc12)C(=O)N[C@@H](CC(C)C)C(=O)N[C@H](C(=O)N[C@@H](C)C(=O)NCC(=O)NCC(=O)N1CCC[C@H]1C(=O)N[C@@H](CO)C(=O)N[C@@H](CO)C(=O)NCC(=O)N[C@@H](C)C(=O)N1CCC[C@H]1C(=O)N1CCC[C@H]1C(=O)N1CCC[C@H]1C(=O)N[C@@H](CO)C(=O)O)[C@@H](C)CC)C(C)C` [HEC-PT100] (H-Y[Aib]QGT[αMePhe(2-F)]TSDYSILLDEIAQK([AEEA-AEEA-γGlu-C20 diacid])AFVQWLIAGGPSSGAPPPS-OH), the EC50 amounted to 0.0978 nM at GLP-1R, 0.0518 nM on GIPR and 9.58 nM on GCGR.
The corresponding values for `CC[C@H](C)[C@H](NC(=O)[C@H](Cc1ccccc1)NC(=O)[C@H](C)NC(=O)[C@H](CCCNC(=N)N)NC(=O)[C@H](CCC(N)=O)NC(=O)[C@H](CCCNC(=N)N)NC(=O)[C@H](CCCCNC(=O)COCCOCCNC(=O)CC[C@H](NC(=O)CCCCCCCCCCCCCCCCC(=O)O)C(=O)O)NC(=O)[C@H](CCC(=O)O)NC(=O)[C@H](CC(=O)O)NC(=O)[C@H](CC(C)C)NC(=O)[C@H](CC(C)C)NC(=O)[C@@H](NC(=O)[C@H](CO)NC(=O)[C@H](Cc1ccc(O)cc1)NC(=O)[C@H](CC(=O)O)NC(=O)[C@H](CO)NC(=O)[C@@H](NC(=O)[C@](C)(Cc1ccccc1F)NC(=O)[C@@H](NC(=O)CNC(=O)[C@H](CCC(N)=O)NC(=O)C(C)(C)NC(=O)[C@@H](N)Cc1ccc(O)cc1)[C@@H](C)O)[C@@H](C)O)[C@@H](C)CC)C(=O)N[C@@H](CCC(=O)O)C(=O)N[C@@H](Cc1ccc(O)cc1)C(=O)N[C@@H](CC(C)C)C(=O)N[C@@H](CC(C)C)C(=O)N[C@@H](C)C(=O)NCC(=O)NCC(=O)N1CCC[C@H]1C(=O)N[C@@H](CO)C(=O)N[C@@H](CO)C(=O)NCC(=O)N[C@@H](C)C(=O)N1CCC[C@H]1C(=O)N1CCC[C@H]1C(=O)N1CCC[C@H]1C(=O)N[C@@H](CO)C(=O)O` [HEC-PT134] are 0.146 nM, 0.207 nM and 0.862 nM.
On the same counts, the results for `CC[C@H](C)[C@H](NC(=O)[C@H](CCC(=O)O)NC(=O)[C@H](CC(=O)O)NC(=O)[C@H](CC(C)C)NC(=O)[C@H](CC(C)C)NC(=O)[C@@H](NC(=O)[C@H](CO)NC(=O)[C@H](Cc1ccc(O)cc1)NC(=O)[C@H](CC(=O)O)NC(=O)[C@H](CO)NC(=O)[C@@H](NC(=O)[C@](C)(Cc1ccccc1F)NC(=O)[C@@H](NC(=O)CNC(=O)[C@H](CCC(N)=O)NC(=O)C(C)(C)NC(=O)[C@@H](N)Cc1ccc(O)cc1)[C@@H](C)O)[C@@H](C)O)[C@@H](C)CC)C(=O)N[C@@H](C)C(=O)N[C@@H](CCC(N)=O)C(=O)N[C@@H](CCCCNC(=O)COCCOCCNC(=O)COCCOCCNC(=O)CC[C@H](NC(=O)CCCCCCCCCCCCCCCCCCC(=O)O)C(=O)O)C(=O)N[C@@H](C)C(=O)N[C@@H](Cc1ccccc1)C(=O)N[C@H](C(=O)N[C@@H](CCC(=O)O)C(=O)N[C@@H](Cc1ccc(O)cc1)C(=O)N[C@@H](CC(C)C)C(=O)N[C@H](C(=O)N[C@@H](C)C(=O)NCC(=O)NCC(=O)N1CCC[C@H]1C(=O)N[C@@H](CO)C(=O)N[C@@H](CO)C(=O)NCC(=O)N[C@@H](C)C(=O)N1CCC[C@H]1C(=O)N1CCC[C@H]1C(=O)N1CCC[C@H]1C(=O)N[C@@H](CO)C(=O)O)[C@@H](C)CC)[C@@H](C)CC` [HEC-PT99] are 0.278 nM, 0.176 nM and 12.3 nM.
On the same counts, the results for `CC[C@H](C)[C@H](NC(=O)[C@H](Cc1ccccc1)NC(=O)[C@H](C)NC(=O)[C@H](CCC(N)=O)NC(=O)[C@H](CCC(N)=O)NC(=O)[C@H](CCCNC(=N)N)NC(=O)[C@H](CCCCNC(=O)COCCOCCNC(=O)CC[C@H](NC(=O)CCCCCCCCCCCCCCCCCCC(=O)O)C(=O)O)NC(=O)[C@H](CCCNC(=N)N)NC(=O)[C@H](CC(=O)O)NC(=O)[C@H](CC(C)C)NC(=O)[C@H](CC(C)C)NC(=O)[C@@H](NC(=O)[C@H](CO)NC(=O)[C@H](Cc1ccc(O)cc1)NC(=O)[C@H](CC(=O)O)NC(=O)[C@H](CO)NC(=O)[C@@H](NC(=O)[C@](C)(Cc1ccccc1F)NC(=O)[C@@H](NC(=O)CNC(=O)[C@H](CCC(N)=O)NC(=O)C(C)(C)NC(=O)[C@@H](N)Cc1ccc(O)cc1)[C@@H](C)O)[C@@H](C)O)[C@@H](C)CC)C(=O)N[C@@H](CCC(=O)O)C(=O)N[C@@H](Cc1ccc(O)cc1)C(=O)N[C@@H](CC(C)C)C(=O)N[C@@H](CC(C)C)C(=O)N[C@@H](C)C(=O)NCC(=O)NCC(=O)N1CCC[C@H]1C(=O)N[C@@H](CO)C(=O)N[C@@H](CO)C(=O)NCC(=O)N[C@@H](C)C(=O)N1CCC[C@H]1C(=O)N1CCC[C@H]1C(=O)N1CCC[C@H]1C(=O)N[C@@H](CO)C(=O)O` [HEC-PT128] are 0.38 nM, 0.0608 nM and 0.128 nM.
As for `CC[C@H](C)[C@H](NC(=O)[C@H](CCCCN)NC(=O)[C@H](CC(=O)O)NC(=O)[C@H](CCCCNC(=O)COCCOCCNC(=O)CC[C@H](NC(=O)CCCCCCCCCCCCCCCCC(=O)O)C(=O)O)NC(=O)[C@H](CC(C)C)NC(=O)[C@@H](NC(=O)[C@H](CO)NC(=O)[C@H](Cc1ccc(O)cc1)NC(=O)[C@H](CC(=O)O)NC(=O)[C@H](CO)NC(=O)[C@@H](NC(=O)[C@](C)(Cc1ccccc1F)NC(=O)[C@@H](NC(=O)CNC(=O)[C@H](CCC(N)=O)NC(=O)C(C)(C)NC(=O)[C@@H](N)Cc1ccc(O)cc1)[C@@H](C)O)[C@@H](C)O)[C@@H](C)CC)C(=O)N[C@@H](C)C(=O)N[C@@H](CCC(N)=O)C(=O)NC(C)(C)C(=O)N[C@@H](C)C(=O)N[C@@H](Cc1ccccc1)C(=O)N[C@H](C(=O)N[C@@H](CCC(=O)O)C(=O)N[C@@H](Cc1ccc(O)cc1)C(=O)N[C@@H](CC(C)C)C(=O)N[C@@H](CC(C)C)C(=O)N[C@@H](C)C(=O)NCC(=O)NCC(=O)N1CCC[C@H]1C(=O)N[C@@H](CO)C(=O)N[C@@H](CO)C(=O)NCC(=O)N[C@@H](C)C(=O)N1CCC[C@H]1C(=O)N1CCC[C@H]1C(=O)N1CCC[C@H]1C(=O)N[C@@H](CO)C(N)=O)[C@@H](C)CC` [HEC-PT139] (H-Y[Aib]QGT[αMePhe(2-F)]TSDYSILK([AEEA-γGlu-C18 diacid])DKIAQ[Aib]AFIEYLLAGGPSSGAPPPS-NH2), the EC50 at GLP-1R stood at 0.158 nM; on GIPR, 0.0359 nM; at GCGR, 0.0821 nM.
The corresponding values for `CC[C@H](C)[C@H](NC(=O)[C@H](Cc1ccccc1)NC(=O)[C@H](CCC(=O)O)NC(=O)[C@H](CCCCNC(=O)COCCOCCNC(=O)CC[C@H](NC(=O)CCCCCCCCCCCCCCCCC(=O)O)C(=O)O)NC(=O)[C@H](CCC(N)=O)NC(=O)[C@H](CCCNC(=N)N)NC(=O)[C@@H](NC(=O)[C@H](CCCNC(=N)N)NC(=O)[C@H](CC(=O)O)NC(=O)[C@H](CC(C)C)NC(=O)[C@H](CC(C)C)NC(=O)[C@@H](NC(=O)[C@H](CO)NC(=O)[C@H](Cc1ccc(O)cc1)NC(=O)[C@H](CC(=O)O)NC(=O)[C@H](CO)NC(=O)[C@@H](NC(=O)[C@](C)(Cc1ccccc1F)NC(=O)[C@@H](NC(=O)CNC(=O)[C@H](CCC(N)=O)NC(=O)C(C)(C)NC(=O)[C@@H](N)Cc1ccc(O)cc1)[C@@H](C)O)[C@@H](C)O)[C@@H](C)CC)[C@@H](C)CC)C(=O)N[C@@H](CCC(=O)O)C(=O)N[C@@H](Cc1c[nH]c2ccccc12)C(=O)N[C@@H](CC(C)C)C(=O)N[C@@H](CC(C)C)C(=O)N[C@@H](C)C(=O)NCC(=O)NCC(=O)N1CCC[C@H]1C(=O)N[C@@H](CO)C(=O)N[C@@H](CO)C(=O)NCC(=O)N[C@@H](C)C(=O)N1CCC[C@H]1C(=O)N1CCC[C@H]1C(=O)N1CCC[C@H]1C(=O)N[C@@H](CO)C(=O)O` [HEC-PT125] (H-Y[Aib]QGT[αMePhe(2-F)]TSDYSILLDRIRQK([AEEA-γGlu-C18 diacid])EFIEWLLAGGPSSGAPPPS-OH) are 0.123 nM, 0.0217 nM and 0.0269 nM.
